Measurements: patent publication US11401516B2, “Channel modulators” (AUCKLAND UNISERVICES LIMITED, priority 2014, dated 2022)

Legend:
Connexin43 hemichannel = biological target: T1, Connexin43 hemichannel (Homo sapiens, UniProt P17302); test: Whole-cell voltage clamp, Connexin43 transfected HeLa cells; format: cell-based; conditions: voltage steps; peptide5 100 μM; carbenoxolone and LaCl3 concentration not stated
T1 construct: expressed in transfected cells; host or cells: HeLa (connexin-deficient parent), Cx43IRESeGFP, puromycin selection
Method: Whole-cell voltage clamp studies were conducted on connexin deficient HeLa cells, Connexin43 transfected HeLa cells and isolated human cerebral microvascular endothelial cells (hCMVEC).
HeLa cells were seeded at 0.045×10^6 cells/mL on 18 mm rat collagen I coated coverslips 16-24 hours before each experiment. Cx43IRESeGFP HeLa cells were cultured overnight in DMEM supplemented with 10% FCS and 1 μg/mL Puromycin at 37° C. at 95% O2 and 5% CO2. Control Cx-deficient cells were maintained in DMEM supplmented with 10% FCS. Coverslips were transferred to a chamber continuously perfused with modified Krebs-Ringer solution containing (in mM): 140 NaCl, 5.4 KCl, 1 MgCl2, 10 mM Hepes and pH adjusted to 7.4 at room temperature. The internal pipette solution contained (in mM): 130 KCl, 10 sodium aspartate, 0.26 CaCl2, 2 EGTA, 5 tetraethylammonium-Cl, 1 MgCl, 3 MgATP, and 5 Hepes at pH 7.2; and was kept on ice. The solutions are described in Contreras J E, et al., Cell Communication and Adhesion (2003), 10:245-249. To resolve single currents in whole-cell configuration, cells with low capacitance (<10 pF) and high resistance pipettes ([…]) with a seal resistance of (>5 GOhm) were selected for recording and analysis.

HUVEC cells = test: Transfection uptake of FAM-labelled oligonucleotides (FACS); format: cell-based, Human; conditions: 200 nM
Method: HUVEC cells (C-003-5C, Invitrogen, primary Human endothelial cells) were used to test the transfection of chemically modified backbones of the Connexin 43 antisense compounds. Cells were transfected with Oligofectamine® using the manufacturer's recommended protocol for 4 hr and 12 hr in serum-free media. The antisense concentration was 200 nM in buffer. The antisense compounds used had unmodified (O) or fully modified (PTO) backbones, where the modified backbone had all thiophosphoriate linkages between the nucleotides. The unmodified sequence SEQ1-O would have the sequence […] NO: 23). The modified sequence SEQ1-PTO would have the sequence of: [NT] NO: 23), wherein the subscript “s” indicates the thiophosphoriate linkage between the two nucleotides. […] All sequences for the transfection study were labelled with FAM for fluorescence labelling. The transfected cells were analyzed by FACS (fluorescent-activated cell sorting), and confocal microscopy.

Connexin 43 RNA = test: Connexin 43 knockdown by qPCR in HUVEC; format: cell-based, human; conditions: for Avg % KD qPCR: HUVEC, phosphorothioate backbone ASN; for Absolute Difference from SEQ1 (relative knockdown): all-thiophosphoriate linkages in the entire backbone; for dose response of Cxn43 knockdown, qPCR: 200-600 nM
Method: Next, the knockdown efficiency of Connexin 43 in HUVEC cells was measured by qPCR for an oligonucleotide series with the same sequence but with a different number of PTO-modifications on the oligonucleotide backbone. The sequences tested were SEQ1 and SEQ4, with none, 2, or all phosphorthioate linkages in the backbone. For the sequences with two phosphorthioate linkages in the backbone, the phosphorthioate linkages were between the last nucleotide linkages at the terminus of each side of the sequence. The sequences are Gs[…]sT (SEQ ID NO: 23) and As[…]sC (SEQ ID NO: 5) for SEQ1-2PTO and SEQ4-2PTO, respectively. […]
(§1) Cells were grown in 6-well culture plates for 24 hr and reached 50-70% confluence prior to antisense oligonucleotide treatments using the transfection agent Oligofectamine®. Cells were harvested for qPCR and Western blotting analysis between 4 and 24 hr after transfection.
qPCR was performed to determine the efficacy of antisense oligonucleotide in knockdown of the target RNA. Briefly, total RNA was extracted from the cells after transfection. The isolated RNA was DNAse-treated and reverse-transcribed into cDNA. The cDNA subsequently underwent qPCR thermal cycling. The Ct values (the number of cycles required for the fluorescent intensity to cross the set threshold) obtained from the qPCR were converted into relative abundance of RNA. The RNA level of the target was normalised to selected reference genes and compared between antisense oligonucleotide versus vehicle treatments.
(§2) The cell screening experiments were performed using HUVEC cells (human umbilical vein endothelial cells; Invitrogen), with two biological replicates in each experiment. The identifiers of “CODA” are SEQ1, and “LP2” are SEQ4.

Connexin 43 = Connexin 43 knockdown by Western blot in HUVEC; format: cell-based, human; conditions: phosphorothioate backbone ASN
Method: as §1
Western blotting was also performed to determine the efficacy of antisense oligonucleotide in knockdown of the target protein. Briefly, total proteins were extracted from the cells after transfection and the concentration was determined by performing bicinchoninic acid (BCA) assay. Subsequently, equal amounts of total protein were loaded for gel electrophoresis and blotted onto nitrocellulose membranes, which were then probed with a specific antibody against the target protein. Densitometry was used to quantify the band intensity of the target protein. Knockdown was quantified by comparing antisense oligonucleotide versus vehicle treatments.
as §2

[1] = cited from earlier work; for incidence of new geographic atrophy: treated monthly, average 23 injections over two years
[2] = Table 66, 4 hr post-transfection
[3] = Table 67, 4 hr post-transfection
[4] = unmodified sequences (no phosphorthioate linkages)

T1 sequence (P17302 2-382 limits assumed): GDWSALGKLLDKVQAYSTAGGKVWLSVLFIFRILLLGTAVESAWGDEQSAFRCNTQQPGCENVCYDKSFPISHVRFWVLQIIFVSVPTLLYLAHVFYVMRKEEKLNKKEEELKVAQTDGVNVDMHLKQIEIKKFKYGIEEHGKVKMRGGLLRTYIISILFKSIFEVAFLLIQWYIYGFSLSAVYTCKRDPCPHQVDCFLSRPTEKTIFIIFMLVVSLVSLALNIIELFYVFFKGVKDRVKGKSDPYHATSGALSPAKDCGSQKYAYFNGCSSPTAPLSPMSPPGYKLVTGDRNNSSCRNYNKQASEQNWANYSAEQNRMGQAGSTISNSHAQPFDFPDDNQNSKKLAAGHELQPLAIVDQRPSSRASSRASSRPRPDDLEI

With [Cl][La]([Cl])[Cl] [LaCl3] the Connexin43 hemichannel activity (Connexin43 hemichannel) was “virtually complete hemichannel block”.

In the case of “ACCCATGTTGCCTGGGCACC (chemistry not fully specified) [SEQ4-Q]”, the “% transfected, M2” value (HUVEC cells; [2]) is reported as 64%, the “% transfected, M3” value (HUVEC cells; [2]) is reported as 34% and the “% transfected, M4” value (HUVEC cells; [2]) is reported as 1%. For the same molecule, the “% transfected, Total” value (HUVEC cells; [2]) was 99%, the “% transfected, M2” value (HUVEC cells; [3]) was 55% and the “% transfected, M3” value (HUVEC cells; [3]) was 41%. The “% transfected, M4” value (HUVEC cells; [3]) was 2% and the “% transfected, Total” value (HUVEC cells; [3]) was 99%.

With “AGGCTGTGCATGGGAGTTAG (chemistry not given here) [SEQ7/1233]” the “Avg % KD qPCR” value (Connexin 43 RNA) was 82%, the “Absolute Difference from SEQ1 (relative knockdown)” value (Connexin 43 RNA) was 17 and the “Avg % KD WB” value (Connexin 43) was 75%.

With “ATATGATCTGCAGGACCCAG (chemistry not given here) [SEQ9/50506]” the “Avg % KD qPCR” value (Connexin 43 RNA) was 79%, the “Absolute Difference from SEQ1 (relative knockdown)” value (Connexin 43 RNA) was 14 and the “Avg % KD WB” value (Connexin 43) was 73%.

With “AsCsCsCsAsTsGsTsTsGsCsCsTsGsGsGsCsAsCsC (ACCCATGTTGCCTGGGCACC; chemistry not fully specified) [SEQ4-PTO]” the “% transfected, M2” value (HUVEC cells; [2]) was 9%, the “% transfected, M3” value (HUVEC cells; [2]) was 44% and the “% transfected, M4” value (HUVEC cells; [2]) was 48%. The “% transfected, Total” value (HUVEC cells; [2]) was 100%, the “% transfected, M2” value (HUVEC cells; [3]) was 9% and the “% transfected, M3” value (HUVEC cells; [3]) was 44%. The “% transfected, M4” value (HUVEC cells; [3]) was 47% and the “% transfected, Total” value (HUVEC cells; [3]) was 99%.

In the case of Avastin: VEGF antagonist antibody, the “incidence of new geographic atrophy” value [1] is given as 19.5%.

In the case of “CAGAAGCGCACATGAGAGAT (chemistry not given here) [SEQ8/47001]”, the “Avg % KD qPCR” value (Connexin 43 RNA) is reported as 81%, the “Absolute Difference from SEQ1 (relative knockdown)” value (Connexin 43 RNA) is reported as 15 and the “Avg % KD WB” value (Connexin 43) is reported as 75%.

For “CCAGGCTGACTCAACCGCTG (chemistry not given here) [SEQ4/37501]”, the “Avg % KD qPCR” value (Connexin 43 RNA) was 87%, the “Absolute Difference from SEQ1 (relative knockdown)” value (Connexin 43 RNA) was 22 and the “dose response of Cxn43 knockdown, qPCR” value (Connexin 43 RNA; [4]) was “exhibited a dose response”. The “Avg % KD WB” value (Connexin 43) was 82%.

With “CGCTGGTCCACAATGGCTAG (chemistry not given here) [SEQ6/133705]” the “Avg % KD qPCR” value (Connexin 43 RNA) was 83%, the “Absolute Difference from SEQ1 (relative knockdown)” value (Connexin 43 RNA) was 18 and the “dose response of Cxn43 knockdown, qPCR” value (Connexin 43 RNA; [4]) was “exhibited a dose response”. The “Avg % KD WB” value (Connexin 43) was 75%.

In the case of “GAAGCGCACATGAGAGATTG (chemistry not given here) [SEQ11]”, the “Absolute Difference from SEQ1 (relative knockdown)” value (Connexin 43 RNA) is reported as 20.

In the case of “GCTGGCTCTGCTTGAAGGTC (chemistry not given here) [SEQ 5/133705]”, the “Avg % KD qPCR” value (Connexin 43 RNA) is reported as 84%, the “Absolute Difference from SEQ1 (relative knockdown)” value (Connexin 43 RNA) is reported as 19 and the “Avg % KD WB” value (Connexin 43) is reported as 75%.

With “GTAATTGCGGCAAGAAGAATTGTTTCTGT (DNA, phosphodiester; FAM fluorescent label attached, position not given here) [SEQ1-O]” the “% transfected, M2” value (HUVEC cells; [2]) was 56%, the “% transfected, M3” value (HUVEC cells; [2]) was 42% and the “% transfected, M4” value (HUVEC cells; [2]) was 2%. For the same molecule, the “% transfected, Total” value (HUVEC cells; [2]) was 99%, the “% transfected, M2” value (HUVEC cells; [3]) was 56% and the “% transfected, M3” value (HUVEC cells; [3]) was 40%. The “% transfected, M4” value (HUVEC cells; [3]) was 2% and the “% transfected, Total” value (HUVEC cells; [3]) was 98%.

In the case of “GTAATTGCGGCAAGAAGAATTGTTTCTGTC (chemistry not given here) [SEQ1]”, the “knockdown effect on Cxn43, qPCR” value (Connexin 43 RNA; unmodified sequences (no phosphorthioate linkages), 4 hr, all concentrations (200-600 nM)) is reported as ≤ 10%.

With “GsTsAsAsTsTsGsCsGsGsCsAsAsGsAsAsGsAsAsTsTsGsTsTsTsCsTsGsT (GTAATTGCGGCAAGAAGAATTGTTTCTGT; chemistry not fully specified) [SEQ1-PTO]” the “% transfected, M2” value (HUVEC cells; [2]) was 26%, the “% transfected, M3” value (HUVEC cells; [2]) was 63% and the “% transfected, M4” value (HUVEC cells; [2]) was 11%. For the same molecule, the “% transfected, Total” value (HUVEC cells; [2]) was 100%, the “% transfected, M2” value (HUVEC cells; [3]) was 15% and the “% transfected, M3” value (HUVEC cells; [3]) was 49%. For the same molecule, the “% transfected, M4” value (HUVEC cells; [3]) was 35% and the “% transfected, Total” value (HUVEC cells; [3]) was 100%.

In the case of Lucentis: VEGF antagonist antibody, the new geographic atrophy ([1]; treated as needed) is given as 16% and the “incidence of new geographic atrophy” value [1] is given as 29.4%.

For “TCTCCCCAGGCTGACTCAAC (chemistry not given here) [SEQ10/37503]”, the “Avg % KD qPCR” value (Connexin 43 RNA) was 77%, the “Absolute Difference from SEQ1 (relative knockdown)” value (Connexin 43 RNA) was 12 and the “Avg % KD WB” value (Connexin 43) was 75%.
